Series [1] concerns the target Transient receptor potential cation channel subfamily V member 1 (Homo sapiens) (UniProt Q8NER1). The series can be described thus: Antagonist activity at human TRPV1 inhibition of capsaicin-induced channel activation at <= 30 uM. The following applies: dose microM <=30.
Series [2] deals with T1, Transient receptor potential cation channel subfamily M member 8 (Homo sapiens, UniProt Q7Z2W7). As to the kind of experiment: Antagonist activity at recombinant human TRPM8 transfected in HEK293 cells assessed as assessed as inhibition of icilin-induced intracellular calcium flux. It counts as cell-based. In general terms: Calcium flux is commonly read through the fluorescence of an indicator in the cells.
Target sequence in this assay (Q7Z2W7 whole entry): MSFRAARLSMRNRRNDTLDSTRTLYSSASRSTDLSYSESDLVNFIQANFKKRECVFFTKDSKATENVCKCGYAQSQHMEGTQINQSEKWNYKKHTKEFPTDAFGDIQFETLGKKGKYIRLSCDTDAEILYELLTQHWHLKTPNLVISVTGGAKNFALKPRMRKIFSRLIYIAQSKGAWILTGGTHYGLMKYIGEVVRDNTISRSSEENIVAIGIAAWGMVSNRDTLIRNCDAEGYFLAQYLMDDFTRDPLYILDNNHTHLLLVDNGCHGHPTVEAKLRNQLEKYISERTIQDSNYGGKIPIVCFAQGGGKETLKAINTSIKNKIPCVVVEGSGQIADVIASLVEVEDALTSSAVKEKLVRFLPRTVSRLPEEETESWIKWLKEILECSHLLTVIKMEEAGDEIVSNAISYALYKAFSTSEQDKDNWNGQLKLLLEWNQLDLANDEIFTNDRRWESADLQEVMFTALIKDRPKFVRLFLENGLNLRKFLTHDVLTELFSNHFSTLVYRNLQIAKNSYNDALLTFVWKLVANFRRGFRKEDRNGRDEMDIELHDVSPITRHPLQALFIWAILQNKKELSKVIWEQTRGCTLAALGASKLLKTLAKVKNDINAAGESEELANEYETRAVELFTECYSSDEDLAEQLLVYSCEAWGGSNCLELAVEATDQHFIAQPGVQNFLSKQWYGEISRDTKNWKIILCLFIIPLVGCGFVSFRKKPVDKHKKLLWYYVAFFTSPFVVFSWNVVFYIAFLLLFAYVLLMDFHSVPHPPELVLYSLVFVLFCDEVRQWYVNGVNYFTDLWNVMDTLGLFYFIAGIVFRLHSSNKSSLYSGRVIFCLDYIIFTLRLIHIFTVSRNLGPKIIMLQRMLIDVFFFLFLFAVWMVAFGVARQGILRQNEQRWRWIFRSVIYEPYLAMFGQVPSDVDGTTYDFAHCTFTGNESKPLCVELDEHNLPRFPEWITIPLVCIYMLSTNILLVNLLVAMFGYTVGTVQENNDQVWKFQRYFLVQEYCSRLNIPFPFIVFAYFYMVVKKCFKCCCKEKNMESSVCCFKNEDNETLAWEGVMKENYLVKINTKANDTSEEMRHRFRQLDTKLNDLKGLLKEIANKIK

In another series the test system is HepG2. As to the kind of experiment: Cytotoxicity against human HepG2 cells assessed as reduction in cell viability at 100 uM. It counts as cell-based. The following applies: hepg2, 100 µM.
Series [3] in a line: Metabolic stability in human liver microsomes assessed as intrinsic clearance in presence of NADPH. It counts as ADME, Microsome.
For series [4], the target named is T1, Transient receptor potential cation channel subfamily M member 8. As to the kind of experiment: Antagonist activity at recombinant human TRPM8 transfected in HEK293 cells assessed as assessed as inhibition of icilin-induced intracellular calcium flux at 0.5 uM relative to control. The following applies: filed as antagonist. It counts as cell-based.
Target sequence in this assay (Q7Z2W7 whole entry, looked up): as the sequence (Q7Z2W7 whole entry) above
Series [5] is described as follows: Metabolic stability in human liver microsomes assessed as half life in presence of NADPH. It counts as ADME, Microsome.

By IC50 is commonly meant the concentration needed to halve the response being measured. For orientation: inhibition means the percentage by which the read-out fell short of the control. In general, half-life refers to the time in which the quantity being followed falls by half.

Activity calls are given as the source filed them. No cut-off for these calls is given here.

Chain of Transient receptor potential cation channel subfamily V member 1 (Homo sapiens) (Q8NER1 whole entry): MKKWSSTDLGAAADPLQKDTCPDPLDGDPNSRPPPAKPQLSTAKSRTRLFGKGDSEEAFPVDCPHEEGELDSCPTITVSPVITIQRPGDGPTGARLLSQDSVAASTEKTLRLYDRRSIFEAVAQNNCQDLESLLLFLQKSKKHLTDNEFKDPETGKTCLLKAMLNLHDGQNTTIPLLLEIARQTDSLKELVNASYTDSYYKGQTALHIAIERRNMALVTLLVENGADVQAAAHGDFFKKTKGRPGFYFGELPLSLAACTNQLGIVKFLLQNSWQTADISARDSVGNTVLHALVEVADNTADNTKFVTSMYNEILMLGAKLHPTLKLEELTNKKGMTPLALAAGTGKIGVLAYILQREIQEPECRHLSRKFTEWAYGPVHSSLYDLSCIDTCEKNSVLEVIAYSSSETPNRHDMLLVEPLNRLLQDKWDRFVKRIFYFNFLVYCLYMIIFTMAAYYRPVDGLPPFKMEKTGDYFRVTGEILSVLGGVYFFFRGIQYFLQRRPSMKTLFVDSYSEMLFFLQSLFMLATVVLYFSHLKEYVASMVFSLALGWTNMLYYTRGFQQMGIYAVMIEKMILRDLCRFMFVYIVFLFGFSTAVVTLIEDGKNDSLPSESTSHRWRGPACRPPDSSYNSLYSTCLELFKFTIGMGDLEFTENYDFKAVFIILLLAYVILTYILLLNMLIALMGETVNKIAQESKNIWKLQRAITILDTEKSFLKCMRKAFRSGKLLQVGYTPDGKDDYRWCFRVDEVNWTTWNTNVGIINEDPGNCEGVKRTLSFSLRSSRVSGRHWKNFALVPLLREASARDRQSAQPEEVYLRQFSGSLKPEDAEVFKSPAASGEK

As for `CCOC(=O)c1sc(-c2cccc(F)c2)nc1C#CCCCC(=O)O`, the result in series [1] was inactive. The 50% inhibitory concentration (IC50) in series [2] came to 4.06 µM. Moreover, the Activity result in the series with HepG2 is reported as “Non-Toxic”. Moreover, the CLH in series [3] was 0.13 mL/min/g.

Turning to `O=C(O)CCCc1cc2nc(-c3cccc(F)c3)sc2c(=O)o1`, the outcome in series [1] was inactive.

With `CCOC(=O)CCCc1[nH]nnc1-c1nc(-c2cccc(F)c2)sc1C(=O)OCC`, in series [1], the outcome was inactive.

For the molecule `O=C(O)CCCc1cc2nc(-c3cccc(F)c3)sc2c(=O)[nH]1`, the outcome in series [1] was inactive.

Take `CCOC(=O)CCCC#Cc1nc(-c2cccc(F)c2)sc1C(=O)OCC`: in series [1], the result was inactive.

For `COc1cc(CN(CCN)C(=O)c2cccs2)ccc1OCc1ccccc1`, the inhibition in series [4] came to 98.3%.

In the case of `CCOC(=O)/C=C/Oc1nc(-c2ccc(C)cc2)sc1C(=O)OCC`, the outcome in series [1] was inactive. Besides, the half-life in series [5] was < 10 min. Further, in series [2], the IC50 stood at 1.13 µM.

The values are drawn from ChEMBL document CHEMBL5030549, “Design, synthesis and biological evaluation of new thiazole scaffolds as potential TRPM8 antagonists” (Bioorg Med Chem Lett, 2021).
